Measurements taken from publication PMC5987880 (The Journal of General Physiology, 2018).
Values joined by “and” are separate entries in the source; they are usually repeats but may differ in a detail not shown here. Identical values can stand only once.

Experiments:
isolated CNBD of MloK1 = settings: read-out: Kd for isolated CNBD of MloK1; ref Cukkemane et al., 2007; cited from earlier work
HCN4 = settings: read-out: Kd for HCN4; ref Akimoto et al., 2014; cited from earlier work
[1] = molecular target: SthK, cyclic nucleotide-gated (CNG) channel from Spirochaeta thermophila, final expression construct SthK_(Δ421–430) (Spirochaeta thermophila); test: cross-linking
SthK [2] = molecular target: T1, SthK (Spirochaeta thermophila, UniProt G0GA88); test: Single-channel recordings of purified SthK in horizontal lipid bilayers; format: biochemical
T1 sequence (G0GA88 1-420): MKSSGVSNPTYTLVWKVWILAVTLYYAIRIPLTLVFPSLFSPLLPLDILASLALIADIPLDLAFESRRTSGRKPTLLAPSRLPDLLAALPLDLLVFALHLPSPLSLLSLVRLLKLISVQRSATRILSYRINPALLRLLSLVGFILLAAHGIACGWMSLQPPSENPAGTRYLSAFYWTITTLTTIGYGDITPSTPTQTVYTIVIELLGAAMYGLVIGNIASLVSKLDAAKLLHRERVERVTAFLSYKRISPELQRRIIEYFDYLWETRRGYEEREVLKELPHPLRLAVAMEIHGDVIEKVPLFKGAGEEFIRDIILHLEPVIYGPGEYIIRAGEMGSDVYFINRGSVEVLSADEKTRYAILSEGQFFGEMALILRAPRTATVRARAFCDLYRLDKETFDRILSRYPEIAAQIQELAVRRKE

SthK [3] = molecular target: T1, SthK; test: Sequential-mixing stopped-flow fluorescence Tl+ flux assay with SthK liposomes; format: biochemical
SthK [4] = molecular target: T1, SthK; test: 86Rb+ flux; format: biochemical; settings: 200 µM cyclic nucleotide, 5:3:2 DOPC:POPG:cardiolipin liposomes
SthK [5] = molecular target: T1, SthK; settings: at 100 mV; ref Brams et al. (2014); cited from earlier work

Nc1ncnc2c1nc(SCCNc1ccc([N+](=O)[O-])c3nonc13)n2[C@@H]1O[C@@H]2COP(=O)(O)O[C@H]2[C@H]1O [fcAMP, 8-NBD-cAMP]
Kd (isolated CNBD of MloK1): ~15.9 nM
Kd (HCN4): 5000 nM

SthK, cyclic nucleotide-gated (CNG) channel from Spirochaeta thermophila, final expression construct SthK_(Δ421–430) (natural protein)
stoichiometry N [1]: 4

Nc1ncnc2c1ncn2[C@@H]1O[C@@H]2COP(=O)(O)O[C@H]2[C@H]1O [cAMP, cyclic adenosine monophosphate]
Open probability Po at 0 mV (SthK [2]; cAMP alone, 0 mV): ≈ 0.1
Hill coefficient nH, bilayer recordings (SthK [2]; open probability at 100 mV (Eq. 10)): 3
Time to maximum activation of SthK (SthK [3]; 200 µM cAMP): 2 s and 1 to 2 s
Activation time constant τ1 (SthK [3]; 200 µM cAMP, delay 0.015-10 s, sum of two exponentials (amplitude 0.45)): ≈ 0.05 s
Activation time constant τ2 (SthK [3]; 200 µM cAMP, delay 0.015-10 s, sum of two exponentials (amplitude 0.55)): ≈ 1.04 s
Slow activation phase (as stated in the Discussion) (SthK [3]; activation kinetics of SthK): ~2 s
86Rb+ uptake through SthK liposomes (SthK [4]): robust cAMP-dependent activity
Open probability Po in oocytes (SthK [5]): ≈ 0.14

Nc1nc2c(ncn2[C@@H]2O[C@@H]3COP(=O)(O)O[C@H]3[C@H]2O)c(=O)[nH]1 [cGMP, cyclic guanosine monophosphate]
Open probability Po with cGMP (SthK [2]; cGMP alone): < 0.003
